Experimental data: patent US7670416B2, “Use of a combination of substances to prevent biofouling organisms” (I-Tech AB, priority 2005, dated 2010)

What was measured:
Ulva = experiment: algae spore germination test (Ulva biofouling);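 note: ulva spores exposed to test compound, then compound removed and spores germinated in culture medium under fluorescent light, 16 h light and 8 h dark, for 7 days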
Procedure: (§1) The efficacy of algicides is usually tested by a spore germination test. Algae are collected from the field and grown in the laboratory. […] The water with test compound is then removed and culture medium is added. The spores are left to germinate under fluorescent lamps (50 μm-2s-1 (PAR)), 16 h light, 8 h darkness, for 7 days in a culture medium, which is changed once a day.
(§2) All the different brands are tested in combination with Catemine 1 for efficacy against both barnacles and algae with the two compounds together or separate. The assays that are be used are the cyprid settling rate assay and the algae germination test.

barnacle cyprids = details: reference (6); cited from earlier work
Enteromorpha = experiment: algae spore germination test (Enteromorpha biofouling); format: in vivo
Procedure: as §1, §2

algae = details: reference (6); target protein lacking within algae; cited from earlier work
Barnacle cyprid larvae = experiment: cyprid settling rate assay (barnacle biofouling); format: in vivo
Source text: The assays that are be used are the cyprid settling rate assay and the algae germination test.

[1] = 0.1 nM Catemine 1 alone (Table 2)
[2] = 0.1 nM Catemine 1 alone (Table 4)
[3] = 1 nM Catemine 1 alone (Table 2)
[4] = 1 nM Catemine 1 alone (Table 4)
[5] = 10 nM Catemine 1 alone (Table 2)
[6] = 10 nM Catemine 1 alone (Table 4)
[7] = 100 nM Catemine 1 alone (Table 2)
[8] = 100 nM Catemine 1 alone (Table 4)

Cc1cccc(C(C)c2c[nH]cn2)c1C (racemic) [Catemine 1, (+/−)-4-[1-(2,3-dimethylphenyl)ethyl]-1H-imidazole]
10%: Barnacle biofouling (% settlement) (Barnacle cyprid larvae; 1 nM Catemine 1 alone) | Barnacle biofouling (% settlement) (Barnacle cyprid larvae; [3]) | Barnacle biofouling (% settlement) (Barnacle cyprid larvae; 1 nM Catemine 1 alone (Table 3)) | Barnacle biofouling (% settlement) (Barnacle cyprid larvae; [4])
100%: Ulva biofouling (% survival) (Ulva; 0.1 nM Catemine 1 alone) | Ulva biofouling (% survival) (Ulva; [1]) | Ulva biofouling (% survival) (Ulva; [2]) | Ulva biofouling (% survival) (Ulva; 1 nM Catemine 1 alone) | Ulva biofouling (% survival) (Ulva; [3]) | Ulva biofouling (% survival) (Ulva; [4]) | Ulva biofouling (% survival) (Ulva; 10 nM Catemine 1 alone) | Ulva biofouling (% survival) (Ulva; [5]) | Ulva biofouling (% survival) (Ulva; [6]) | Ulva biofouling (% survival) (Ulva; 100 nM Catemine 1 alone) | Ulva biofouling (% survival) (Ulva; [7]) | Ulva biofouling (% survival) (Ulva; [8]) | Enteromorpha biofouling (% survival) (Enteromorpha; 0.1 nM Catemine 1 alone) | Enteromorpha biofouling (% survival) (Enteromorpha; 1 nM Catemine 1 alone) | Enteromorpha biofouling (% survival) (Enteromorpha; 10 nM Catemine 1 alone) | Enteromorpha biofouling (% survival) (Enteromorpha; 100 nM Catemine 1 alone) | Barnacle biofouling (% settlement) (Barnacle cyprid larvae; 0.1 nM Catemine 1 alone) | Barnacle biofouling (% settlement) (Barnacle cyprid larvae; [1]) | Barnacle biofouling (% settlement) (Barnacle cyprid larvae; 0.1 nM Catemine 1 alone (Table 3)) | Barnacle biofouling (% settlement) (Barnacle cyprid larvae; [2])
0%: Barnacle biofouling (% settlement) (Barnacle cyprid larvae; 10 nM Catemine 1 alone) | Barnacle biofouling (% settlement) (Barnacle cyprid larvae; [5]) | Barnacle biofouling (% settlement) (Barnacle cyprid larvae; 10 nM Catemine 1 alone (Table 3)) | Barnacle biofouling (% settlement) (Barnacle cyprid larvae; [6]) | Barnacle biofouling (% settlement) (Barnacle cyprid larvae; 100 nM Catemine 1 alone) | Barnacle biofouling (% settlement) (Barnacle cyprid larvae; [7]) | Barnacle biofouling (% settlement) (Barnacle cyprid larvae; 100 nM Catemine 1 alone (Table 3)) | Barnacle biofouling (% settlement) (Barnacle cyprid larvae; [8])
specific action: action on barnacle cyprids (barnacle cyprids)
no effect: effect of algal growth (algae)

CSc1nc(NC2CC2)nc(NC(C)(C)C)n1 [Irgarol, 2-methylthio-4-tert-butylamino-6-cyclopropylamino-s-triziane]
0%: Enteromorpha biofouling (% survival) (Enteromorpha; 100 nM Irgarol alone)
100%: Enteromorpha biofouling (% survival) (Enteromorpha; 0.1 nM Irgarol alone) | Enteromorpha biofouling (% survival) (Enteromorpha; 1 nM Irgarol alone) | Barnacle biofouling (% settlement) (Barnacle cyprid larvae; 0.1 nM Irgarol alone) | Barnacle biofouling (% settlement) (Barnacle cyprid larvae; 1 nM Irgarol alone) | Barnacle biofouling (% settlement) (Barnacle cyprid larvae; 10 nM Irgarol alone) | Barnacle biofouling (% settlement) (Barnacle cyprid larvae; 100 nM Irgarol alone)
50%: Enteromorpha biofouling (% survival) (Enteromorpha; 10 nM Irgarol alone)

CN(C)S(=O)(=O)N(SC(F)(Cl)Cl)c1ccccc1 [Dichlofluanid, N′-dimethyl-N-phenylsulphamide]
100%: Ulva biofouling (% survival) (Ulva; 0.1 μg/ml Dichlofluanid alone) | Barnacle biofouling (% settlement) (Barnacle cyprid larvae; 0.1 μg/ml Dichlofluanid alone)
90%: Ulva biofouling (% survival) (Ulva; 1 μg/ml Dichlofluanid alone)
10%: Ulva biofouling (% survival) (Ulva; 10 μg/ml Dichlofluanid alone)
50%: Barnacle biofouling (% settlement) (Barnacle cyprid larvae; 1 μg/ml Dichlofluanid alone)
0%: Ulva biofouling (% survival) (Ulva; 100 μg/ml Dichlofluanid alone) | Barnacle biofouling (% settlement) (Barnacle cyprid larvae; 100 μg/ml Dichlofluanid alone)
25%: Barnacle biofouling (% settlement) (Barnacle cyprid larvae; 10 μg/ml Dichlofluanid alone)

CCCCCCCCn1sc(Cl)c(Cl)c1=O [SeaNine, 4,5-dichloro-2-n-octyl-3(2H)-isothiazolone]
100%: Ulva biofouling (% survival) (Ulva; 0.1 nM SeaNine alone) | Barnacle biofouling (% settlement) (Barnacle cyprid larvae; 0.1 nM SeaNine alone)
50%: Ulva biofouling (% survival) (Ulva; 1 nM SeaNine alone) | Barnacle biofouling (% settlement) (Barnacle cyprid larvae; 1 nM SeaNine alone)
10%: Ulva biofouling (% survival) (Ulva; 10 nM SeaNine alone) | Barnacle biofouling (% settlement) (Barnacle cyprid larvae; 10 nM SeaNine alone)
0%: Ulva biofouling (% survival) (Ulva; 100 nM SeaNine alone) | Barnacle biofouling (% settlement) (Barnacle cyprid larvae; 100 nM SeaNine alone)

CN(C)C(=O)Nc1ccc(Cl)c(Cl)c1 [Diuron, 3-(3,4-dichlorophenyl)-1,1-dimethylurea]
100%: Ulva biofouling (% survival) (Ulva; 0.1 μM Diuron alone) | Barnacle biofouling (% settlement) (Barnacle cyprid larvae; 0.1 μM Diuron alone) | Barnacle biofouling (% settlement) (Barnacle cyprid larvae; 1 μM Diuron alone) | Barnacle biofouling (% settlement) (Barnacle cyprid larvae; 10 μM Diuron alone) | Barnacle biofouling (% settlement) (Barnacle cyprid larvae; 100 μM Diuron alone)
50%: Ulva biofouling (% survival) (Ulva; 10 μM Diuron alone)
90%: Ulva biofouling (% survival) (Ulva; 1 μM Diuron alone)
0%: Ulva biofouling (% survival) (Ulva; 100 μM Diuron alone)
